Experimental data: patent US12540120B2, “Herbicidal compounds” (SYNGENTA CROP PROTECTION AG, priority 2019, dated 2026)

How the values were obtained:
Type in all cases: in vivo
[1] = system: Abutilon theophrasti (ABUTH); assay: B6 Pre-Emergence Efficacy—Test 3; conditions: pre-emergence application, 250 g/ha, evaluated after 13 days (Test 3)
Procedure: (§1) B6 Pre-Emergence Efficacy—Test 3 Seeds of a variety of test species were sown in standard soil in pots: Amaranthus retoflexus (AMARE), Setaria faberi (SETFA), Echinochloa crus-galli (ECHCG), Ipomoea hederacea (IPOHE), Zea Mays (ZEAMX), Abutilon theophrasti (ABUTH). After cultivation for one day (pre-emergence) under controlled conditions in a glasshouse (at 24/16° C., day/night; 14 hours light; 65% humidity), the plants were sprayed with an aqueous spray solution derived from the formulation of the technical active ingredient in acetone/water (50:50) solution containing 0.5% Tween 20 (polyoxyethelyene sorbitan monolaurate, CAS RN 9005-64-5). Compounds are applied at 250 g/ha. The test plants were then grown in a glasshouse under controlled conditions (at 24/16° C., day/night; 14 hours light; 65% humidity) and watered twice daily. After 13 days, the test is evaluated for the percentage damage caused to the plant. The biological activities are assessed on a five point scale (5=80-100%; 4=60-79%; 3=40-59%; 2=20-39%; 1=0-19%). A blank value in the table is indicative that the compound was not tested on that species.

[2] = system: Ipomoea hederacea (IPOHE); assay: B6 Pre-Emergence Efficacy—Test 3; conditions: pre-emergence application, 250 g/ha, evaluated after 13 days (Test 3)
Procedure: as §1

Zea Mays (ZEAMX) [3] = assay: B6 Pre-Emergence Efficacy—Test 3; conditions: pre-emergence application, 250 g/ha, evaluated after 13 days (Test 3)
Procedure: as §1

Setaria faberi (SETFA) [4] = assay: B6 Pre-Emergence Efficacy—Test 3; conditions: pre-emergence application, 250 g/ha, evaluated after 13 days (Test 3)
Procedure: as §1

[5] = system: Amaranthus retoflexus (AMARE); assay: B6 Pre-Emergence Efficacy—Test 3; conditions: pre-emergence application, 250 g/ha, evaluated after 13 days (Test 3)
Procedure: as §1

[6] = system: Echinochloa crus-galli (ECHCG); assay: B6 Pre-Emergence Efficacy—Test 3; conditions: pre-emergence application, 250 g/ha, evaluated after 13 days (Test 3)
Procedure: as §1

[7] = system: Abutilon theophrasti (ABUTH); assay: B3 Post-Emergence Efficacy—Test 3; conditions: post-emergence application, 250 g/ha, evaluated after 13 days (Test 3)
Procedure: (§2) B3 Post-Emergence Efficacy—Test 3 Seeds of a variety of test species are sown in standard soil in pots:—Amaranthus retoflexus (AMARE), Setaria faberi (SETFA), Echinochloa crus-galli (ECHCG), Ipomoea hederacea (IPOHE), Zea Mays (ZEAMX), Abutilon theophrasti (ABUTH). After 8 days cultivation (post-emergence) under controlled conditions in a glasshouse (at 24/16° C., day/night; 14 hours light; 65% humidity), the plants are sprayed with an aqueous spray solution derived from the formulation of the technical active ingredient in acetone/water (50:50) solution containing 0.5% Tween 20 (polyoxyethylene sorbitan monolaurate, CAS RN 9005-64-5). Compounds are applied at 250 g/ha. The test plants are then grown in a glasshouse under controlled conditions in a glasshouse (at 24/16° C., day/night; 14 hours light; 65% humidity) and watered twice daily. After 13 days, the test is evaluated for the percentage damage caused to the plant. The biological activities are assessed on a five point scale (5=80-100%; 4=60-79%; 3=40-59%; 2=20-39%; 1=0-19%). A blank value in the table is indicative that the compound was not tested on that species.

[8] = system: Ipomoea hederacea (IPOHE); assay: B3 Post-Emergence Efficacy—Test 3; conditions: post-emergence application, 250 g/ha, evaluated after 13 days (Test 3)
Procedure: as §2

Zea Mays (ZEAMX) [9] = assay: B3 Post-Emergence Efficacy—Test 3; conditions: post-emergence application, 250 g/ha, evaluated after 13 days (Test 3)
Procedure: as §2

Setaria faberi (SETFA) [10] = assay: B3 Post-Emergence Efficacy—Test 3; conditions: post-emergence application, 250 g/ha, evaluated after 13 days (Test 3)
Procedure: as §2

[11] = system: Amaranthus retoflexus (AMARE); assay: B3 Post-Emergence Efficacy—Test 3; conditions: post-emergence application, 250 g/ha, evaluated after 13 days (Test 3)
Procedure: as §2

[12] = system: Echinochloa crus-galli (ECHCG); assay: B3 Post-Emergence Efficacy—Test 3; conditions: post-emergence application, 250 g/ha, evaluated after 13 days (Test 3)
Procedure: as §2

Cc1nn(C)c(=O)c(-c2c(F)ccc(Cl)c2CCc2cnn(-c3ccccc3)c2)c1O [Compound A-1.386]
percentage damage caused to the plant, five point scale, ABUTH [1]: 2 (2=20-39%) | percentage damage caused to the plant, five point scale, IPOHE [2]: 4 (4=60-79%) | percentage damage caused to the plant, five point scale, ZEAMX (Zea Mays (ZEAMX) [3]): 2 (2=20-39%) | percentage damage caused to the plant, five point scale, SETFA (Setaria faberi (SETFA) [4]): 5 (5=80-100%) | percentage damage caused to the plant, five point scale, AMARE [5]: 2 (2=20-39%) | percentage damage caused to the plant, five point scale, ECHCG [6]: 5 (5=80-100%) | percentage damage caused to the plant, five point scale, ABUTH [7]: 3 (3=40-59%) | percentage damage caused to the plant, five point scale, IPOHE [8]: 4 (4=60-79%) | percentage damage caused to the plant, five point scale, ZEAMX (Zea Mays (ZEAMX) [9]): 4 (4=60-79%) | percentage damage caused to the plant, five point scale, SETFA (Setaria faberi (SETFA) [10]): 4 (4=60-79%) | percentage damage caused to the plant, five point scale, AMARE [11]: 4 (4=60-79%) | percentage damage caused to the plant, five point scale, ECHCG [12]: 4 (4=60-79%)
